Data taken from US9725442B2, “Heterocyclic derivative having PGD2 receptor antagonist activity” (Shionogi & Co., Ltd., priority 2011, dated 2017).
Read-outs that look alike come from different tables or passages of the source.

Assays:
Human DP1 receptor = Human DP1 receptor (Homo sapiens (Human), UniProt Q13258); assay: Human DP1 inhibitory activity in DP1-expressing cell (PGD2-induced cAMP); type: cell-based
Method: Compounds were categorized as AA (cAMP is less than 100 nM) and A (cAMP is more than 100 nM and less than 5000 nM) as shown in Table 99 and 100.

CRTH2 = CRTH2 (Homo sapiens (Human), UniProt Q9Y5Y4); assay: CRTH2 receptor binding inhibitory activity ([3H]-PGD2 displacement, membranes of CRTH2-expressing K562 cell)
Outline: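 CRTH2-expressing K562 membranes (20 μg/well) in 50 mM Tris/HCl pH 7.4 with 10 mM MgCl2 were incubated with [3H]-PGD2 for 60 min at room temperature, then filtered.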

[1] = category of cAMP IC50, human DP1 receptor expressing Jurkut cell
[2] = CRTH2 receptor binding, [3H]-PGD2 displacement, membrane of CRTH2-expressing K562 cell, categorized AAAA/AAA, read-out: Ki
[3] = [3H]-PGD2 displacement, membrane of CRTH2-expressing K562 cell, read-out: Ki

Sequence of CRTH2 (Q9Y5Y4 whole entry): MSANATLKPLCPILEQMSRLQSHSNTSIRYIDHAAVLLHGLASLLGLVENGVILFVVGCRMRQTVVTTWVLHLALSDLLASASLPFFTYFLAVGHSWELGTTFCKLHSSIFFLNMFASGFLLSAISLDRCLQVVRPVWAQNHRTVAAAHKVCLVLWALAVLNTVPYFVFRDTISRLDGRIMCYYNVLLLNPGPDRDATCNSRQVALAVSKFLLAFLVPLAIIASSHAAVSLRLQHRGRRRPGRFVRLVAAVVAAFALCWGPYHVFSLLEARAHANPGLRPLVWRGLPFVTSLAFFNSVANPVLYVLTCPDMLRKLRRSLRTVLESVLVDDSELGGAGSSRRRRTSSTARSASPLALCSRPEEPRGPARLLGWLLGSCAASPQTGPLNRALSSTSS
Sequence of Human DP1 receptor (Q13258 whole entry): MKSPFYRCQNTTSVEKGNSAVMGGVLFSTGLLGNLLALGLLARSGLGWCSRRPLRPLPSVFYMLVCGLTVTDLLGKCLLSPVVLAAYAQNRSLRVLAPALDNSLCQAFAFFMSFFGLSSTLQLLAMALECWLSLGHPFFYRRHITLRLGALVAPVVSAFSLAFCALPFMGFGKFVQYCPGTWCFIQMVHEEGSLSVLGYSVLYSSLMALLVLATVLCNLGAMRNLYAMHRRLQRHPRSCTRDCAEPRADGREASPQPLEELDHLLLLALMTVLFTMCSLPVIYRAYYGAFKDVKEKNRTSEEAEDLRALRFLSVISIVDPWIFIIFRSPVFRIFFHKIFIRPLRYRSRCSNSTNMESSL

IC50 (Human DP1 receptor; [1]) [nM]	Ki (CRTH2; [2]) [nM]	Ki (CRTH2; [3]) [nM]	IC50 (Human DP1 receptor; IC50 of PGD2 (60 nM)-induced cAMP increase, human DP1 receptor expressing Jurkut cell) [nM]	SMILES	Ki (CRTH2) [nM]
< 100	< 100	–	–	COc1ccc(S(=O)(=O)N2C[C@@H](C)[C@@H](n3nc(CC(=O)O)c4ccc(Cl)cc43)C2)cc1 [Compound I-140]	–
100 to 5000	100 to 5000	–	–	CCOc1ccc(S(=O)(=O)N2C[C@@H](C)[C@@H](n3nc(Cc4noc(=O)[nH]4)c4ccccc43)C2)cc1 [Compound I-296]	–
< 100	100 to 5000	–	–	CSC[C@H]1C[C@@H](n2nc(CC(=O)O)c3ccc(F)cc32)CN1S(=O)(=O)c1ccc(OC(C)C)cc1 [Compound I-354]	–
< 100	< 100	–	–	CC(C)Oc1ccc(S(=O)(=O)N2C[C@@H](C)[C@@H](n3nc(CC(=O)O)c4cc(F)c(F)cc43)C2)cc1 [Compound I-68]	–
100 to 5000	< 100	–	–	CCOc1ccc(S(=O)(=O)N2C[C@@H](C)[C@@H](n3nc(CC(=O)O)c4ccccc43)C2)c(-c2ccccc2)c1 [Compound I-187]	–
< 100	100 to 5000	–	–	CC(C)Oc1ccc(S(=O)(=O)N2C[C@@H](C)[C@@H](n3nc(CC(=O)O)c4cc(C#N)ccc43)C2)cc1 [Compound I-262]	–
< 100	< 100	–	–	CCOc1ccc(S(=O)(=O)N2C[C@@H](C)[C@@H](n3nc(CC(=O)O)c4ccccc43)C2)c(Br)c1 [Compound I-216]	–
< 100	< 100	–	–	Cc1ccc2c(CC(=O)O)nn([C@H]3CN(S(=O)(=O)c4ccc(OC(C)C)nc4)C[C@H]3C)c2c1 [Compound I-229]	–
< 100	100 to 5000	–	–	CCOc1ccc(S(=O)(=O)N2C[C@@H](C)[C@@H](n3nc(C(F)C(=O)O)c4ccccc43)C2)cc1 (some centres unmarked) [Compound I-338]	–
< 100	100 to 5000	–	–	CC(C)Oc1ccc(S(=O)(=O)N2C[C@H](n3nc(CC(=O)O)c4ccc(Cl)cc43)C[C@@H]2C(F)F)cc1 [Compound I-93]	–
100 to 5000	< 100	–	–	C[C@@H]1CN(S(=O)(=O)c2ccc(F)cc2)C[C@@H]1n1nc(CC(=O)O)c2ccc(F)cc21 [Compound I-48]	–
100 to 5000	100 to 5000	–	–	CC(C)Oc1ccc(S(=O)(=O)N2CC[C@H](n3nc(CC(=O)O)c4ccc(F)cc43)C[C@H]2CO)cc1 [Compound I-72]	–
100 to 5000	< 100	–	–	CCOc1ccc(S(=O)(=O)N2C[C@@H](C)[C@@H](n3nc(CC(=O)O)c4ccc(C5CCCCC5)cc43)C2)cn1 [Compound I-224]	–
< 100	< 100	–	–	CC(C)Oc1ccc(S(=O)(=O)N2C[C@H](n3nc(CC(=O)O)c4ccccc43)[C@](C)(F)C2)cc1 [Compound I-88]	–
100 to 5000	< 100	–	–	CCOc1ccc(S(=O)(=O)N2C[C@@H](C)[C@@H](n3nc(CC(=O)O)c4ccc(C5CCCCC5)cc43)C2)cc1 [Compound I-223]	–
< 100	100 to 5000	–	–	CC(C)Oc1ccc(S(=O)(=O)N2C[C@@H](C)[C@@H](n3nc(CC(=O)O)c4cc(F)ccc43)C2)cc1 [Compound I-69]	–
100 to 5000	< 100	7.8	–	CCOc1ccc(S(=O)(=O)N2C[C@@H](C)[C@@H](n3nc(CC(=O)O)c4ccccc43)C2)c(CCCO)c1 [Compound I-280]	–
100 to 5000	100 to 5000	–	–	CC(C)Oc1ccc(S(=O)(=O)N2CC[C@@H](n3nc(CC(=O)O)c4ccc(F)cc43)[C@H]2C)cc1 [Compound I-1]	–
100 to 5000	100 to 5000	–	–	CCOc1ccc(S(=O)(=O)N2C[C@H](n3nc(CC(=O)O)c4ccccc43)C[C@@H]2C(N)=O)cc1 [Compound I-319]	–
< 100	100 to 5000	–	99	CC(C)Oc1ccc(S(=O)(=O)N2C[C@H](n3nc(CC(=O)O)c4ccc(F)cc43)C[C@@H]2CO)cc1 [Compound I-11]	–
100 to 5000	100 to 5000	–	–	CC(C)Oc1ccc(S(=O)(=O)N2C[C@@H](C)[C@@H](n3nc(CCC(=O)O)c4ccc(F)cc43)C2)cc1 [Compound I-101]	–
100 to 5000	< 100	–	–	CC(C)Oc1ccc(S(=O)(=O)N2C[C@@H](C)[C@@H](n3nc(CC(=O)O)c4ccccc43)C2)nc1 [Compound I-248]	–
100 to 5000	< 100	–	–	CC(C)Oc1ccc(S(=O)(=O)N2C[C@H](n3nc(CC(=O)O)c4ccc(F)cc43)C[C@H]2CF)cc1 [Compound I-12]	–
100 to 5000	< 100	–	–	CC(C)Oc1ccc(S(=O)(=O)N2C[C@H](n3nc(CC(=O)O)c4ccccc43)[C@@](C)(O)C2)cc1 [Compound I-86]	–
< 100	100 to 5000	–	–	CCOc1ccc(S(=O)(=O)N2C[C@@H](C)[C@@H](n3nc(C(F)(F)C(=O)O)c4ccccc43)C2)cc1 [Compound I-290]	–
< 100	100 to 5000	–	–	COc1ccc(S(=O)(=O)N2C[C@@H](C)[C@@H](n3nc(CC(=O)O)c4cc(Cl)ccc43)C2)cc1 [Compound I-218]	–

IC50 (Human DP1 receptor; [1]) [nM]	Ki (CRTH2; [2]) [nM]	Ki (CRTH2; [3]) [nM]	IC50 (Human DP1 receptor; IC50 of PGD2 (60 nM)-induced cAMP increase, human DP1 receptor expressing Jurkut cell) [nM]	SMILES	Ki (CRTH2) [nM]
100 to 5000	100 to 5000	–	–	CC#CCOC[C@H]1C[C@@H](n2nc(CC(=O)O)c3ccc(F)cc32)CN1S(=O)(=O)c1ccc(OC(C)C)cc1 [Compound I-326]	–
100 to 5000	< 100	4.4	–	CC(C)C1CC1S(=O)(=O)N1C[C@@H](C)[C@@H](n2nc(CC(=O)O)c3ccc(F)cc32)C1 (some centres unmarked) [Compound I-239]	–
< 100	< 100	–	–	CCOc1ccc(S(=O)(=O)N2C[C@H](n3nc(CC(=O)O)c4ccccc43)C[C@H]2C#N)cc1 [Compound I-320]	–
100 to 5000	< 100	–	–	CC(C)Oc1ccc(S(=O)(=O)N2C[C@@H](CCO)[C@@H](n3nc(CC(=O)O)c4ccc(F)cc43)C2)cc1 [Compound I-40]	–
< 100	100 to 5000	–	–	CC(C)Oc1ccc(S(=O)(=O)N2[C@H](C)C[C@H](n3nc(CC(=O)O)c4ccc(F)cc43)C[C@@H]2C)cc1 [Compound I-73]	–
100 to 5000	100 to 5000	–	–	CC(C)Oc1ccc(S(=O)(=O)N2C[C@H](n3nc(CC(=O)O)c4ccc(F)cc43)C[C@@H]2COCCCOc2ccccc2)cc1 [Compound I-289]	–
100 to 5000	< 100	–	–	CCOc1ccc(S(=O)(=O)N2C[C@H](F)[C@@H](n3nc(CC(=O)O)c4ccccc43)C2)cc1 [Compound I-313]	–
100 to 5000	100 to 5000	–	–	C[C@@H]1CN(S(=O)(=O)c2ccc(OCCOC(C)(C)C)cc2)C[C@@H]1n1nc(CC(=O)O)c2ccccc21 [Compound I-193]	–
100 to 5000	< 100	–	–	COc1ccc(S(=O)(=O)N2C[C@@H](C)[C@@H](n3nc(CC(=O)O)c4ccc(C)cc43)C2)s1 [Compound I-180]	–
100 to 5000	100 to 5000	–	–	CC(C)Oc1ccc(S(=O)(=O)N2C[C@H](n3nc(CC(=O)O)c4ccc(F)cc43)C[C@@H]2c2ccncc2)cc1 [Compound I-361]	–
< 100	< 100	16	–	CC(C)Oc1ccc(S(=O)(=O)N2C[C@H](n3nc(CC(=O)O)c4ccc(F)cc43)C[C@]2(C)C#N)cc1 [Compound I-104]	–
100 to 5000	< 100	–	–	CC(C)Oc1ccc(S(=O)(=O)N2C[C@H](n3nc(CC(=O)O)c4ccc(F)cc43)C[C@@H]2Cn2ccnc2)cc1 [Compound I-20]	–
100 to 5000	< 100	–	–	COc1ccc(S(=O)(=O)N2C[C@@H](C)[C@@H](n3nc(CC(=O)O)c4ccc(F)cc43)C2)cn1 [Compound I-116]	–
< 100	< 100	–	–	C[C@@H]1CN(S(=O)(=O)c2ccc(OC(F)F)cc2)C[C@@H]1n1nc(CC(=O)O)c2ccc(C(F)(F)F)cc21 [Compound I-127]	–
100 to 5000	< 100	–	–	CCOc1ccc(S(=O)(=O)N2C[C@@H](C)[C@@H](n3nc(CC(=O)O)c4ccccc43)C2)c(/C=C/COC)c1 [Compound I-182]	–
< 100	100 to 5000	–	–	CC(C)Oc1ccc(S(=O)(=O)N2CC[C@H](n3nc(CC(=O)O)c4ccc(F)cc43)C[C@@H]2C)cc1 [Compound I-76]	–
100 to 5000	100 to 5000	230	–	CCOc1ccc(S(=O)(=O)N2C[C@@H](C)[C@@H](n3nc(CC(=O)O)c4ccc(N5CCOCC5)cc43)C2)cc1 [Compound I-219]	–
< 100	< 100	–	–	CCOc1ccc(S(=O)(=O)N2C[C@@H](C)[C@@H](n3nc(CC(=O)O)c4ccc(C#N)cc43)C2)cc1 [Compound I-172]	–
100 to 5000	100 to 5000	–	–	Cc1ccc(S(=O)(=O)N2C[C@H](n3c(C)c(CC(=O)O)c4ccccc43)C[C@@H]2C)cc1 [Compound I-318]	–
< 100	100 to 5000	–	–	COc1ccc2c(c1)c(CC(=O)O)nn2[C@H]1CN(S(=O)(=O)c2ccc(OC(C)C)cc2)C[C@H]1C [Compound I-267]	–
< 100	< 100	–	–	CCOc1ccc(S(=O)(=O)N2C[C@@H](C)[C@@H](n3nc(CC(=O)O)c4ccc(F)cc43)C2)c(F)c1 [Compound I-147]	–
< 100	< 100	–	–	CCc1ccc(S(=O)(=O)N2C[C@@H](C)[C@@H](n3nc(CC(=O)O)c4ccc(C(F)(F)F)cc43)C2)cc1 [Compound I-126]	–
< 100	< 100	–	–	COc1ccc(S(=O)(=O)N2C[C@@H](C)[C@@H](n3nc(CC(=O)O)c4ccc(C)cc43)C2)c(F)c1 [Compound I-236]	–
100 to 5000	< 100	3.1	–	CC(C)Oc1ccc(S(=O)(=O)N2C[C@@H](C)[C@@H](n3nc(CC(=O)O)c4cccnc43)C2)cc1 [Compound I-145]	–
< 100	< 100	–	–	CCOc1ccc(S(=O)(=O)N2C[C@@H](C)[C@@H](n3nc(CC(=O)O)c4ccc(OC)cc43)C2)cc1 [Compound I-225]	–

SMILES	IC50 (Human DP1 receptor; [1]) [nM]	Ki (CRTH2; [2]) [nM]	Ki (CRTH2; [3]) [nM]	IC50 (Human DP1 receptor; IC50 of PGD2 (60 nM)-induced cAMP increase, human DP1 receptor expressing Jurkut cell) [nM]	Ki (CRTH2) [nM]
O=C(O)Cc1nn([C@H]2C[C@H]3CC[C@@H](C2)N3S(=O)(=O)c2ccc(F)cc2)c2cc(F)ccc12 [Compound I-82]	100 to 5000	–	–	–	100 to 5000
